Reference: the supplement of paper PMC10307832

Tests used:
Assay in all cases: relative viability (nuclei count vs DMSO), 5 days (fraction); higher = more cells survive
Ponatinib + Alpelisib = compound: Cc1ccc(C(=O)Nc2ccc(CN3CCN(C)CC3)c(C(F)(F)F)c2)cc1C#Cc1cnc2cccnn12 [Ponatinib] + Cc1nc(NC(=O)N2CCC[C@H]2C(N)=O)sc1-c1ccnc(C(C)(C)C(F)(F)F)c1 [Alpelisib] (partner 2 µM)
Summary of the method: (§1)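 Relative viability divides the nuclei count in treated wells by that in vehicle wells. Lung cancer cell lines were seeded in 1536-well plates, dosed by pin tool the next day, and fixed and stained after 5 days in one step with final 0.05% Triton X-100, 1% formaldehyde and 1 ug/ml Hoechst. Dosing was a single drug or a fixed anchor-drug dose plus five library-drug doses (not always all listed) in √10 steps, and values are medians of duplicate plates imaged at 4×.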

Ponatinib + Dasatinib = compound: Cc1ccc(C(=O)Nc2ccc(CN3CCN(C)CC3)c(C(F)(F)F)c2)cc1C#Cc1cnc2cccnn12 [Ponatinib] + Cc1nc(Nc2ncc(C(=O)Nc3c(C)cccc3Cl)s2)cc(N2CCN(CCO)CC2)n1 [Dasatinib] (partner 0.075 µM)
Summary of the method: as §1

Pazopanib + Foretinib = compound: Cc1ccc(Nc2nccc(N(C)c3ccc4c(C)n(C)nc4c3)n2)cc1S(N)(=O)=O [Pazopanib] + COc1cc2c(Oc3ccc(NC(=O)C4(C(=O)Nc5ccc(F)cc5)CC4)cc3F)ccnc2cc1OCCCN1CCOCC1 [Foretinib] (partner 0.25 µM)
Summary of the method: as §1

Pazopanib + Phenformin = compound: Cc1ccc(Nc2nccc(N(C)c3ccc4c(C)n(C)nc4c3)n2)cc1S(N)(=O)=O [Pazopanib] + N=C(N)NC(=N)NCCc1ccccc1 [Phenformin] (partner 250 µM)
Summary of the method: as §1

Cell Line	relative viability (Ponatinib + Alpelisib; first compound 0.002 µM)	relative viability (Ponatinib + Alpelisib; first compound 0.006325 µM)	relative viability (Ponatinib + Alpelisib; first compound 0.06325 µM)	relative viability (Ponatinib + Alpelisib; first compound 0.2 µM)	relative viability (Ponatinib + Dasatinib; first compound 0.002 µM)	relative viability (Ponatinib + Dasatinib; first compound 0.006325 µM)	relative viability (Ponatinib + Dasatinib; first compound 0.06325 µM)	relative viability (Ponatinib + Dasatinib; first compound 0.2 µM)	relative viability (Pazopanib + Foretinib; first compound 0.01 µM)	relative viability (Pazopanib + Foretinib; first compound 0.03162 µM)	relative viability (Pazopanib + Foretinib; first compound 0.1 µM)	relative viability (Pazopanib + Foretinib; first compound 0.3162 µM)	relative viability (Pazopanib + Foretinib; first compound 1 µM)	relative viability (Pazopanib + Phenformin; first compound 0.01 µM)	relative viability (Pazopanib + Phenformin; first compound 0.03162 µM)	relative viability (Pazopanib + Phenformin; first compound 0.1 µM)	relative viability (Pazopanib + Phenformin; first compound 0.3162 µM)	relative viability (Pazopanib + Phenformin; first compound 1 µM)
HCC-827	1.01	0.987	1.01	1.01	0.241	0.344	0.296	0.248	1.07	0.992	1.05	1.06	0.969	0.46	0.466	0.374	0.426	0.414
HOP-62	0.782	0.871	0.652	0.718	0.6	0.607	0.819	0.6	1.05	1.04	1.2	1.08	0.976	0.654	0.627	0.734	0.673	0.665
IA-LM	0.756	0.657	0.828	0.722					1.17	1.07	1.13	1.04	1.02					
LC-2-ad	0.832	0.792	0.648	0.552	0.286	0.298	0.313	0.256	0.888	0.927	1.05	0.967	1.04	0.618	0.649	0.584	0.689	0.685
LCLC-97TM1		0.227		0.314	0.983	0.94	0.906	0.863	0.908	0.976	1.03	0.909	0.905	0.242	0.419	0.389	0.43	0.452
LCLC-103H	0.89	0.969	1.07	1.03	0.386	0.573	0.532	0.394	0.651	0.897	0.734	0.819	0.894	0.247	0.338	0.344	0.344	0.342
LK-2	1.12	1.05	1.17	0.668		0.268	0.196	0.158		1.2	1.07	1.11	1.01		0.449	0.639	0.594	0.301
LOU-NH91	0.703	0.792	0.822	0.713	0.541	0.581	0.548	0.525	0.898	0.92	0.945	0.967	0.948	0.635	0.731	0.605	0.751	0.731
LU99A	0.519	0.453	0.62	0.466	0.498	0.664	0.498	0.462	0.772	0.906	0.878	0.864	0.837	0.725	0.943	0.796	0.923	0.945
LXF-289	1.05	1.02	1.04	1.08	0.26	0.275	0.26	0.195	1.06	1.06	1.08	0.99	0.996	0.563	0.554	0.507	0.533	0.525
NCI-H23	0.61	0.818	0.905	0.666	0.667	0.748	0.867	0.726	1.1	1.02	0.964	0.947	1.12	0.565	0.87	0.905	0.798	0.783
NCI-H322M	0.77	0.694	0.866	0.827	0.263	0.244	0.232	0.253	0.908	1.25	0.921	0.966	0.93	0.844	0.866	0.779	0.854	0.791
NCI-H358	0.886	0.95	0.942	0.772	0.185	0.184	0.236	0.187	0.726	0.91	0.838		0.918	0.388	0.384	0.37		0.548
NCI-H522					0.782	0.846	0.703	0.816						0.532	0.618	0.71	0.7	0.65
NCI-H1299	1.04	1.09	0.987	0.935					1.07	1.06	1.13	1.09	1.01					
NCI-H1623					0.524	0.527	0.55	0.539	0.835	0.846	0.834	0.896	0.911	0.584	0.541	0.58	0.574	0.595
NCI-H1650					0.298	0.346	0.327	0.349	1.12	1.2	1.15	1.05	1.09	0.405	0.559	0.418	0.537	0.464
NCI-H1703	0.299	0.355	0.225	0.186					0.306	0.358	0.362	0.396	0.337					
NCI-H1792	0.668	0.681	0.746	0.656	0.726	0.795	0.886	0.542							0.308		0.348	0.31
NCI-H2342					0.285	0.309	0.296	0.296	0.981	1	1.09	0.939	0.755	0.501	0.635	0.538	0.572	0.569
SW 900					0.682	0.494	0.453	0.48	0.843	0.886	0.941	0.876	0.97	0.532	0.628	0.398	0.593	0.689
